Test results published in patent US8680133B2, “Alkyl indole-3-carbinol-derived antitumor agents” (The Ohio State University Research Foundation, priority 2009, dated 2014).

Key:
[1] = system: PC-3 prostate cancer cells; test: MTT assay of PC-3 cell viability; format: cell-based; conditions: MTT assay, 24, 48 and 72 h; comparison in words
Protocol: Each data point represents means±S.D. (n=6). The activity of OSU-A9M versus its parent compound A9 ([1-(3′-nitro-4′-chlorobenzenesulfonyl)-1H-indol-3-yl]-methanol) and its fluorinated counterpart OSU-A9F ([1-(4-Chloro-3-nitro-benzenesulfonyl)-5-fluoro-1H-indol-3-yl])-methanol in suppressing the cell viability of PC-3 prostate cancer cells was compared using the MTT [3-(4,5-dimethylthiazol-2-yl)-2,5-diphenyl-2H-tetrazolium bromide] assay. Cancer cells and PrECs were grown in 5% FBS-supplemented RPMI 1640 medium or 5% FBS-supplemented prostate epithelial growth medium, respectively, in 96-well, flat-bottomed plates for 24 h, and then exposed to various concentrations of test agents in the same medium for the indicated time intervals. Controls received DMSO vehicle at a concentration equal to that in drug-treated cells. At the end of the treatment, the medium was removed, replaced by 200 μL of 0.5 mg/mL of MTT in the same medium, and cells were incubated in the CO2 incubator at 37° C. for 2 h. Supernatants were removed from the wells, and the reduced MTT dye was solubilized in 200 μL/well DMSO. Absorbance at 570 nm was determined on a plate reader.

PC-3 xenograft tumor = PC-3 xenograft tumor growth in nude mice, oral gavage; format: in vivo; conditions: 25 and 50 mg/kg per day by oral gavage, 49-day treatment; in words
Protocol: FIG. 2 provides three graphs (A-C) showing the in vivo effects of OSU-A9M (C) versus OSU-A9 (A) and OSU-A9 F (B), each at 25 and 50 mg/kg per day by oral gavage, on suppressing PC-3 xenograft tumor growth in nude mice (n=6).
The efficacy studies were therefore repeated with OSU-A9M and OSU-A9F, following 42 days and 49 days treatment, respectively, versus OSU-A9 with 49-day treatment.
In all three treatments, the body weights of drug-treated mice were not affected. No signs of overt toxicity were observed.

Structure (SMILES) | In vitro potency against the viability of PC-3 cells [1] | Tumor growth suppression in the PC-3 model (PC-3 xenograft tumor)
O=[N+]([O-])c1cc(S(=O)(=O)n2cc(CO)c3cc(F)ccc32)ccc1Cl [OSU-A9F, reference compound] | greater than or similar to that of OSU-A9 | 
O=[N+]([O-])c1cc(S(=O)(=O)n2cc(CO)c3ccccc32)ccc1Cl [OSU-A9, [1-(3′-nitro-4′-chlorobenzenesulfonyl)-1H-indol-3-yl]-methanol, reference compound] |  | significant tumor growth suppression
